From US20260048036A1, “CRYSTALLINE FORMS OF A GLUCOSYLCERAMIDE SYNTHASE INHIBITOR AND USES THEREOF” (ACELINK THERAPEUTICS, INC., priority 2022, published 2026)
Positions count from the first letter of the chain named. Several values for one entry are separate records, joined by “and”; a condition that tells them apart may be missing. Identical values can stand only once.

Columns and labels:
[1] = Hygroscopicity by DVS at 25° C.; type: physicochemical
[2] = Solid state stability, 1 week (HPLC purity, color, XRPD); details: Solid state, 1 week; for Purity, Bulk (HPLC): initial purity 99.8%
[3] = target: T1, Glucosylceramide synthase (GCS) (Rattus norvegicus, UniProt Q9R0E0); test: GCS enzymatic assay with L6 cell lysate; type: biochemical; details: 1 μM, N = 1, N = 2
T1 construct: The MDCK, K-562, and L6 cell lines all endogenously express GCS enzyme; host or cells: L6 rat skeletal muscle cell lysate
T1 sequence (Q9R0E0 1-394): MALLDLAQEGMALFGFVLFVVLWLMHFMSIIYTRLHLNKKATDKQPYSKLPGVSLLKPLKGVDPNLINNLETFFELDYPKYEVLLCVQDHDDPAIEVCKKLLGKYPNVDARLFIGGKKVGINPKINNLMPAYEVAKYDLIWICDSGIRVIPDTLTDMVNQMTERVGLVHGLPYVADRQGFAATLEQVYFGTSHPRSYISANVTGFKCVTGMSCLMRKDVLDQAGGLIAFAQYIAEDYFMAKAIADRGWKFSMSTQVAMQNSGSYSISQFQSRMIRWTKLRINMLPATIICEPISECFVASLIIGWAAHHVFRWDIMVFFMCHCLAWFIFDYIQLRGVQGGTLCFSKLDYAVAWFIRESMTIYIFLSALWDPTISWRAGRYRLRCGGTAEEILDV
Description: In this study, the inventors developed a reliable method to monitor GCS catalytic activity using the fluorescent substrate, C6-NBD-ceramide. The reaction product, C6-NBD-glucosylceramide, could then be detected and quantified by LC-MS/MS. The inventors used this method to test and validate the effect of various GCS inhibitors on GCS enzyme activity from different species.
The MDCK, K-562, and L6 cell lines all endogenously express GCS enzyme and were used to test the effect of various GCS inhibitors on enzyme originating from different species. The GCS enzyme activity was detected by using the fluorescent substrate, C6-NBD-ceramide, and monitoring the formation of the fluorescent reaction product, C6-NBD-glucosylceramide. First, the inventors used cell lysate derived from a canine kidney cell line (MDCK, ATCC Cat #CCL-34™) as the source of GCS and tested the inhibitory activity of several control and test compounds. The inventors then used the human leukemia K-562 cell line (ATCC Cat #[…]) to test the effect of these GCS inhibitors on intact living cells. Finally, a cell lysate derived from a rat skeletal muscle cell line, L6 (ATCC Cat #[…]), was used to test the effect of these GCS inhibitors on rodent GCS enzyme.
(§1) GCS activity was evaluated using a GCS enzyme assay derived from MDCK or L6 cell lysates.
(§2) MDCK or L6 cell lysates were prepared using M-PER in the presence of a protease inhibitor cocktail. Each 100 mm dish (100% confluent) was lysed with 250 μl of M-PER containing protease inhibitors. Protein concentration was determined using Pierce BCA protein assay kit.
Sixty micrograms of MDCK lysate was incubated with various concentrations of compounds (0.00001 μM-1 μM) in 100 mM Tris buffer (pH 7.5) containing 10 mM MgCl2, 1 mM dithiothreitol, 1 mM EGTA, 2 mM NAD, 100 μM UDP-glucose, 10 μM C6-NBD-ceramide with 35 μM dioleoylphosphatidylcholine/5 μM sulfatide in a final reaction volume of 100 μl at 37° C. for 1 hour. The final concentration of DMSO was 0.1% in both compound treated and DMSO only treated samples. Each individual reaction was terminated with 11 volumes of methanol:acetonitrile (6:5; containing 200 ng/ml Tolbutamide as internal control). After sufficient mixing, reactions were centrifuged at 2000 rpm for 10 mins, supernatant was injected into the LC-MS/MS for analysis.
For the assay with L6 cell lysate, different amounts of L6 cell lysate were used.
(§3) The quantitative analysis of C6-NBD-glucosylceramide was performed on a Shimadzu ultra-fast liquid chromatography coupled with API 4000 mass spectrometer. Analyst 1.5 software packages were used to control the LC-MS/MS system, as well as for data acquisition and processing.
(§4) The C6-NBD-glucosylceramide reading was normalized first by dividing the peak area of C6-NBD-glucosylceramide with the peak area of the internal standard, and then the amount was calculated according to the standard curve generated in the same assay run. For the cell based assay results, the amount of C6-NBD-glucosylceramide was also normalized by the protein concentration of the cell samples.
To confirm the inhibitory activity of test compounds on GCS from different species, cells from rat were used. First, the presence of GCS activity was verified using various amounts of L6 cell lysate (FIG. 34, Table 26).

[4] = target: T2, Glucosylceramide synthase (GCS) (Canis lupus familiaris, UniProt A0A8I3MXG6); test: GCS enzymatic assay with MDCK cell lysate; type: biochemical, canine
T2 construct: The MDCK, K-562, and L6 cell lines all endogenously express GCS enzyme; host or cells: MDCK (canine kidney) cell lysate
T2 sequence (A0A8I3MXG6 1-394): T1 sequence (Q9R0E0 1-394) with Q8L, L13V, S29A, E96D, A131G, R164K, K249R, S251A, A377T
Description: The reaction product, C6-NBD-glucosylceramide, could then be detected and quantified by LC-MS/MS. The inventors used this method to test and validate the effect of various GCS inhibitors on GCS enzyme activity from different species.
The GCS enzyme activity was detected by using the fluorescent substrate, C6-NBD-ceramide, and monitoring the formation of the fluorescent reaction product, C6-NBD-glucosylceramide. First, the inventors used cell lysate derived from a canine kidney cell line (MDCK, ATCC Cat #CCL-34™) as the source of GCS and tested the inhibitory activity of several control and test compounds.
as §1, §2
The final concentration of DMSO was 0.1% in both compound treated and DMSO only treated samples. Each individual reaction was terminated with 11 volumes of methanol:acetonitrile (6:5; containing 200 ng/ml Tolbutamide as internal control). After sufficient mixing, reactions were centrifuged at 2000 rpm for 10 mins, supernatant was injected into the LC-MS/MS for analysis.
as §3, §4
IC50 values were generated from sigmoidal dose-response (variable slope) curves with GraphPad Prism software (GraphPad Software, Inc., San Diego, CA) using the percent inhibition of C6-NBD-glucosylceramide accumulation relative to DMSO control.

[5] = 1 μM, 60 μg MDCK lysate/reaction, N = 1, N = 2

O=C(N[C@H](CN1CCCC1)[C@H](O)c1ccc(OC2CC2)c(Cl)c1)/C(=N/O)c1ccc2cc(Cl)ccc2c1.O=C(O)C(O)C(O)C(=O)O
XRPD after DVS test [1]: No form change
hygroscopicity (DVS) [1]: slightly hygroscopic
Desorp. (DVS) ([1]; 0% RH): 0.00%
Sorp. (water uptake by DVS) ([1]; 0% RH): 0.00%
Desorp. (DVS) ([1]; 10% RH): 0.07%
Sorp. (water uptake by DVS) ([1]; 10% RH): 0.04%
Desorp. (DVS) ([1]; 20% RH): 0.12%
Sorp. (water uptake by DVS) ([1]; 20% RH): 0.09%
Desorp. (DVS) ([1]; 30% RH): 0.18%
Sorp. (water uptake by DVS) ([1]; 30% RH): 0.14%
Desorp. (DVS) ([1]; 40% RH): 0.22%
Sorp. (water uptake by DVS) ([1]; 40% RH): 0.18%
Sorp. (water uptake by DVS) ([1]; 50% RH): 0.25%
Sorp. (water uptake by DVS) ([1]; 60% RH): 0.28%
Sorp. (water uptake by DVS) ([1]; 70% RH): 0.35%
Sorp. (water uptake by DVS) ([1]; 80% RH): 0.42%
Sorp. (water uptake by DVS) ([1]; 90% RH): 0.57%
water uptake increased from 40% RH to 90% RH ([1]; DVS): about 0.39%
Bulk (XRPD) ([2]; 25° C./92% RH, open container): No form change
Purity, Bulk (HPLC) ([2]; 25° C./92% RH, open container): 99.8%
Bulk (XRPD) ([2]; 40° C./75% RH, open container): No form change
Purity, Bulk (HPLC) ([2]; 40° C./75% RH, open container): 99.8%
Bulk (XRPD) ([2]; 60° C., tight container): No form change
Purity, Bulk (HPLC) ([2]; 60° C., tight container): 99.8%

CCCCCCCC(=O)N[C@H](CN1CCCC1)[C@H](O)c1ccc2c(c1)OCCO2 [Eliglustat, reference compound]
C6-NBD-Ceramide (Normalized to internal control) ([3]; 30 μg L6 lysate/reaction): 5.98 and 6.37
C6-NBD-Glucosylceramide Concentration ([3]; 30 μg L6 lysate/reaction): 31.2 nM and 51.0 nM
Inhibition ([3]; 30 μg L6 lysate/reaction): 92.48%
inhibition at 1 µM ([3]; 30 μg L6 lysate/reaction): 95.4%
C6-NBD-Ceramide (Normalized to internal control) ([3]; 60 μg L6 lysate/reaction): 6.47 and 5.46
C6-NBD-Glucosylceramide Concentration ([3]; 60 μg L6 lysate/reaction): 50.2 nM and 44.1 nM
Inhibition ([3]; 60 μg L6 lysate/reaction): 96.04%
inhibition at 1 µM ([3]; 60 μg L6 lysate/reaction): 95.5%
C6-NBD-Ceramide (Normalized to internal control) ([3]; 120 μg L6 lysate/reaction): 5.82 and 6.23
C6-NBD-Glucosylceramide Concentration ([3]; 120 μg L6 lysate/reaction): 48.4 nM and 57.9 nM
Inhibition ([3]; 120 μg L6 lysate/reaction): 95.77%
inhibition at 1 µM ([3]; 120 μg L6 lysate/reaction): 96.5%
C6-NBD-Ceramide (Normalized to internal control) ([3]; 180 μg L6 lysate/reaction): 5.60 and 5.41
C6-NBD-Glucosylceramide Concentration ([3]; 180 μg L6 lysate/reaction): 63.6 nM and 63.3 nM
Inhibition ([3]; 180 μg L6 lysate/reaction): 95.22%
inhibition at 1 µM ([3]; 180 μg L6 lysate/reaction): 95.2%
C6-NBD-Ceramide (Normalized to internal control) ([3]; 240 μg L6 lysate/reaction): 4.96 and 5.12
C6-NBD-Glucosylceramide Concentration ([3]; 240 μg L6 lysate/reaction): 56.2 nM and 57.7 nM
Inhibition ([3]; 240 μg L6 lysate/reaction): 95.21%
inhibition at 1 µM ([3]; 240 μg L6 lysate/reaction): 95.3%
C6-NBD-Ceramide (Normalized to internal control) [4, 5]: 4.68 and 4.99
C6-NBD-Glucosylceramide Concentration [4, 5]: 49.8 nM and 59.3 nM
Inhibition [4, 5]: 94.01%
inhibition at 1 µM [4, 5]: 95%
IC50 ([4]; MDCK cell lysate as source of GCS, C6-NBD-glucosylceramide by LC-MS/MS): 52.2 nM
